{
  "source": "patent US8758723B2",
  "about": "“Compositions and methods for cellular imaging and therapy” (The Board of Regents of the University of Texas System, priority 2006, dated 2014)",
  "test_system": "tumor-bearing animal models",
  "assay": "Planar images of tumor-bearing animal models",
  "format": "in vivo",
  "conditions": "tumor-bearing animal models (FIGS. 5-7, 9, 10)",
  "method": "Imaging studies were performed 12 to 15 days after inoculation. Tumor sizes of approximately 1-1.5 cm were measured. Scintigraphic images were obtained using an M-camera from Siemens Medical Systems (Hoffman Estates, Ill.). The camera was equipped with a low-energy parallel-hole collimator.\nPlanar scintigraphy was obtained at immediate, 0.5-4 hrs after i.v. injection of ^99mTc—N4-DG, or ^99mTc—N4 (0.3 mCi/rat; 0.1 mg mass/rabbit). To compare the radiotracer accumulation, ROIs (region of interest in counts per pixel) were determined. The ROIs count between tumor and muscle was used to calculate tumor-to-nontumor ratios.",
  "data": [
    {"compound": "CC(N)(Cc1ccc(OCCCN2CCCNCCNCCCNCC2)cc1)C(=O)O", "note": "(stereo not shown) [Example N4-AMT]", "values": [
      {"measurement": "tumor visualization on planar images", "value": "visualized clearly"}
    ]}
  ]
}
